Consider 21 compounds from patent US20100099676A1 (SHIONOGI & CO., LTD., priority 2006, published 2010).

Like-named read-outs stand apart in the source and are kept apart here.

What all share (assay): Enzyme inhibiting activity of MMPs, fluorogenic peptide substrate
Holding throughout (type): biochemical

In test [1] the target is T1, MMP-2 (Homo sapiens, UniProt P08253).
T1 construct: purchased Calbiochem (EMD/MERCK Biosciences)
T1 sequence (P08253 110-660): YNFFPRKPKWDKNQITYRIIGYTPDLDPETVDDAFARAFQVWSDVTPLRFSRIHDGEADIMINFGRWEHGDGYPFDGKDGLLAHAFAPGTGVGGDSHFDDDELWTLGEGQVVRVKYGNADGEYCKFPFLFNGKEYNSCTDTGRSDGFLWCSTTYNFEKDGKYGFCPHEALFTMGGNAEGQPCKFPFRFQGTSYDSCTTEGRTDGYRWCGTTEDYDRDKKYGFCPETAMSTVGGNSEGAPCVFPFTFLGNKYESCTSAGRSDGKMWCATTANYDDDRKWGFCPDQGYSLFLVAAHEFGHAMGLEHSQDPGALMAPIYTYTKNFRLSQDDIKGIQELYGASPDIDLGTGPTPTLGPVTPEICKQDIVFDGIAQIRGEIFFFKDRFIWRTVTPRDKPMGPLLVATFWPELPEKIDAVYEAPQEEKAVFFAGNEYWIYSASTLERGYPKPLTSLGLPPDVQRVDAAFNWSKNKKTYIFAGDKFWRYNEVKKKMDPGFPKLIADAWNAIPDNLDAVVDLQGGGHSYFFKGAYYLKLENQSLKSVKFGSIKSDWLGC
Conditions: substrate MOCAc-Pro-Leu-Gly-Leu-A2Pr(DNP)-Ala-Arg-NH2, fluorescent intensity. How it is done:
(§1) Various human MMPs (MMP-2, MMP-9 and MMP-13) were purchased from Calbiochem (EMD/MERCK Biosciences).
(§2) The enzyme activity of MMPs was measured according to the method described in C. Graham Knight, Frances Willenbrock and Gillian Murphy: A novel coumarin-labelled peptide for sensitive continuous assays of the matrix metalloproteinases: FEBS LETT., 296, (1992), 263-266. As a substrate, MOCAc-Pro-Leu-Gly-Leu-A2Pr(DNP)- Ala-Arg-NH2 (Peptide Institute, Inc. Osaka, Japan) was used, and the following four assays are performed per compound (inhibitor) for measuring the inhibiting activity.
(§3) (A) Substrate (synthetic substrate), enzyme (MMPs), inhibitor
(§4) (B) Substrate (synthetic substrate), inhibitor
(§5) (C) Substrate (synthetic substrate), enzyme (MMPs)
(§6) (D) Substrate (synthetic substrate)
(§7) In each assay, the fluorescent intensity was measured, and inhibition (%) was calculated by the following equation.
(§8) Inhibition (%)=[I−(A−B)/(C−D)]×100
(§9) IC50 indicates a concentration at which inhibition (%) is 50%.

For test [2], the target named is T2, MMP-9 (Homo sapiens, UniProt P14780).
T2 construct: purchased Calbiochem (EMD/MERCK Biosciences)
Conditions: substrate MOCAc-Pro-Leu-Gly-Leu-A2Pr(DNP)-Ala-Arg-NH2, fluorescent intensity. How it is done: as §1, §2, §3, §4, §5, §6, §7, §8, §9

The target in test [3] is T3, MMP-13 (Homo sapiens, UniProt P45452).
T3 construct: purchased Calbiochem (EMD/MERCK Biosciences)
How it is done:
as §1
Since the purchased MMP-13 was Proenzyme, the activated one was used, which was incubated at 37° C. for 2 hours after the successive addition of an assay buffer (containing 50 mM Tris-HCl (pH7.6), 0.3 M NaCl, 10 mM CaCl2, 0.005% Brij35) and APMA (final concentration 1 mM) to the enzyme solution.
as §2, §3, §4, §5, §6, §7, §8, §9

Setting [4] is: APMA-activated proenzyme, substrate MOCAc-Pro-Leu-Gly-Leu-A2Pr(DNP)-Ala-Arg-NH2, fluorescent intensity, read-out: IC50 MMP-13.
Where [5] appears, read: compounds not described in the Tables, read-out: inhibiting activity for MMP-13.

T2 sequence (P14780 94-707): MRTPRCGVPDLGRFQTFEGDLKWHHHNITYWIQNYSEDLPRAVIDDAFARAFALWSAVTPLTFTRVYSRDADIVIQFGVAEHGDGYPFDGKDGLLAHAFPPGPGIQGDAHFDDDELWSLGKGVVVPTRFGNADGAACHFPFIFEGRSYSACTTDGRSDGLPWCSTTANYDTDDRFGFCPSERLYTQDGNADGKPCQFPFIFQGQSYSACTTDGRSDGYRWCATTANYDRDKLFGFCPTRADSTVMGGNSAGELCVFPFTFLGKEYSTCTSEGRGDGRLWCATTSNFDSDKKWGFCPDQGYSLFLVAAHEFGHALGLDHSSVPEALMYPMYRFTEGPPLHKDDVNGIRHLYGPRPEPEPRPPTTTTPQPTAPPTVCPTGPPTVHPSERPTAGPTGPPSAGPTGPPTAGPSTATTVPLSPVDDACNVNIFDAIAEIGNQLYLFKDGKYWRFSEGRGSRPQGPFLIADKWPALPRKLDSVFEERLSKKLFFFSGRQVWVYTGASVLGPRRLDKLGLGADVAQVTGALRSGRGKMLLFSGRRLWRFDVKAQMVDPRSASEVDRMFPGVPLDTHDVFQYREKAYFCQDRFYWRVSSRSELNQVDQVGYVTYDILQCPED

For the compound `CCC(=O)c1cccc2ccc(C#Cc3ccc(N4CCN(S(=O)(=O)N[C@H](C)C(=O)O)CC4)cc3)cc12` [III-86, (R)-2-{4-[4-(8-propionylnaphthalen-2-ylethynyl)-phenyl]-piperazine-1-sulfonylamino}-proponic acid], the IC50 in test [1] is 1000 to 10000 nM; in test [2], above 10000 nM; in test [3] (setting [4]) it was 9 nM.

With `CC(C)[C@H](NS(=O)(=O)N1CCN(c2ccc(C#Cc3ccnc(C(=O)NCc4ccc(Cl)cc4)c3)cc2)CC1)C(=O)O` [III-69, (S)-2-(4-{4-[2-(4-chrolobenzylcarbamoyl)-pyridin-4-ylethynyl]-phenyl}-piperazine-1-sulfonylamino)-3-methylbutanoic acid], the values for the IC50 in test [1], in test [2] and in test [3] (setting [4]) were above 10000 nM, above 10000 nM and 7 nM, respectively.

For the compound `CC(C)[C@@H](NS(=O)(=O)N1CCN(c2ccc(C#Cc3ccnc(C(=O)NCc4cc(Cl)cc(Cl)c4)c3)cc2)CC1)C(=O)O` [III-157, (R)-2-(4-{4-[2-(3,5-dichlorobenzylcarbamoyl)-pyridin-4-ylethynyl]-phenyl}-piperazine-1-sulfonylamino)-3-methylbutanoic acid], the figures for the IC50 in test [1], in test [2] and in test [3] (setting [4]) were above 10000 nM, above 10000 nM and 19 nM, respectively.

Turning to `CCC[C@H](NS(=O)(=O)N1CCN(c2ccc(C#Cc3ccnc(C(=O)NCc4ccc(OC)cc4)c3)cc2)CC1)C(=O)O` [Compound V-33, (5)-2-(4-{4-[2-(4-methoxybenzylcarbamoyl)-pyridin-4-ylethynyl]-phenyl}-piperazine-1-sulfonylamino)-pentanoic acid], the IC50 in test [1] was 1000 to 10000 nM; in test [2], above 10000 nM; in test [3] (setting [4]), 3 nM.

For the compound `CC(C)[C@@H](NS(=O)(=O)N1CCN(c2ccc(C#Cc3ccnc(C(=O)NCc4ccc(Cl)cc4)c3)cc2)CC1)C(=O)O` [III-144, (R)-2-(4-{4-[2-(4-chrolobenzylcarbamoyl)-pyridin-4-ylethynyl]-phenyl}-piperazine-1-sulfonylamino)-3-methylbutanoic acid], the values for the IC50 in test [1], in test [2] and in test [3] (setting [4]) were 1000 to 10000 nM, above 10000 nM and 10 nM, respectively.

As to `C[C@@H](NS(=O)(=O)N1CCN(c2ccc(C#Cc3ccc4c(c3)c(-c3ncco3)cn4C)cc2)CC1)C(=O)O` [III-46, (R)-2-{4-[4-(1-methyl-3-oxazol-2-yl-1H-indol-5-ylethynyl)-phenyl]-piperazine-1-sulfonylamino}-proponic acid], the IC50 was above 10000 nM in test [1], above 10000 nM in test [2] and 18 nM in test [3] (setting [4]).

For the compound `CC(C)COc1ccc(C#Cc2ccc(N3CCN(S(=O)(=O)N[C@@H](C(=O)O)C(C)C)CC3)cc2)cc1C(=O)NCc1ccc(S(C)(=O)=O)cc1` [Compound V-6, (R)-2-(4-{4-[4-isobutoxy-3-(4-methanesulfonylbenzylcarbamoyl)-phenylethynyl]-phenyl}-piperazine-1-sulfonylamino)-3-methylbutanoic acid], the IC50 in test [1] is above 10000 nM; in test [2], above 10000 nM; in test [3] (setting [4]), 19 nM.

In the case of `C[C@@H](NS(=O)(=O)N1CCN(c2ccc(C#Cc3ccc4cccc(C(=O)N5CCOCC5)c4c3)cc2)CC1)C(=O)O` [Compound I-33, (R)-2-(4-{4-[8-(morpholine-4-carbonyl)-naphthalen-2-ylethynyl]-phenyl}-piperazine-1-sulfonylamino)-proponic acid], the IC50 in test [1] was 1000 to 10000 nM; in test [2] it was above 10000 nM; in test [3] (setting [4]) it was 11 nM.

For `CC(C)Oc1ccc(C#Cc2ccc(N3CCN(S(=O)(=O)N[C@H](C)C(=O)O)CC3)cc2)cc1C(=O)NCc1ccccc1` [III-116, (R)-2-{4-[4-(3-benzylcarbamoyl-4-isopropoxyphenylethynyl)-phenyl]-piperazine-1-sulfonylamino}-proponic acid], the IC50 in test [1] is above 10000 nM; in test [2] it was above 10000 nM; in test [3] (setting [4]), 23 nM.

Consider `C/C=C/c1cccc2ccc(C#Cc3ccc(N4CCN(S(=O)(=O)N[C@H](C)C(=O)O)CC4)cc3)cc12` [III-38, (R)-2-(4-{4-[((E)-8-propenyl)-naphthalen-2-ylethynyl]-phenyl}-piperazine-1-sulfonylamino)-proponic acid], for which the IC50 in test [1] was above 10000 nM; in test [2], above 10000 nM; in test [3] (setting [4]), 29 nM.

As for `C[C@@H](NS(=O)(=O)N1CCN(c2ccc(C#Cc3ccc4c(c3)/C(=N\OCc3ccccc3)CCO4)cc2)CC1)C(=O)O` [Compound I-113, (R)-2-[4-(4-{4-[(Z)-benzyloxyimino]-chroman-6-ylethynyl}-phenyl)-piperazine-1-sulfonylamino]-proponic acid], the IC50 is above 10000 nM in test [1], above 10000 nM in test [2] and 71 nM in test [3] (setting [4]).

As to `CCC[C@H](NS(=O)(=O)N1CCN(c2ccc(C#Cc3ccnc(C(=O)NCc4ccc(Cl)cc4)c3)cc2)CC1)C(=O)O` [III-60, (S)-2-(4-{4-[2-(4-chrolobenzylcarbamoyl)-pyridin-4-ylethynyl]-phenyl}-piperazine-1-sulfonylamino)-pentanoic acid], the figures for the IC50 in test [1], in test [2] and in test [3] (setting [4]) were above 10000 nM, above 10000 nM and 6 nM, respectively.

Turning to `CSc1cccc2ccc(C#Cc3ccc(N4CCN(S(=O)(=O)N[C@H](C)C(=O)O)CC4)cc3)cc12` [Compound I-82, (R)-2-{4-[4-(8-methylsulfanylnaphthalen-2-ylethynyl)-phenyl]-piperazine-1-sulfonylamino}-proponic acid], the IC50 in test [3] (setting [5]) lay in the range of 10 to 100 nM.

With `CCNC(=O)c1cccc2ccc(C#Cc3ccc(N4CCN(S(=O)(=O)N[C@H](C)C(=O)O)CC4)cc3)cc12` [Compound I-104, (R)-2-{4-[4-(8-ethylcarbamoylnaphthalen-2-ylethynyl)-phenyl]-piperazine-1-sulfonylamino}-proponic acid], in test [3] (setting [5]), the IC50 was below 10 nM.

Take `C[C@@H](NS(=O)(=O)N1CCN(c2ccc(C#Cc3ccc4cccc(-c5ccc[nH]5)c4c3)cc2)CC1)C(=O)O` [Compound I-111, (R)-2-(4-{4-[8-(1H-pyrrol-2-yl)-naphthalen-2-ylethynyl]-phenyl}-piperazine-1-sulfonylamino)-proponic acid]: the IC50 in test [3] (setting [5]) was in the range of 10 to 100 nM.

`COc1cccc2ccc(C#Cc3ccc(N4CCN(S(=O)(=O)N[C@H](C)C(=O)O)CC4)cc3)cc12` [Compound I-99, (R)-2-{4-[4-(8-methoxynaphthalen-2-ylethynyl)-phenyl]-piperazine-1-sulfonylamino}-proponic acid]: the IC50 in test [3] (setting [5]) was in the range of 10 to 100 nM.

Turning to `CCC[C@H](NS(=O)(=O)N1CCN(c2ccc(C#Cc3ccc4cccc(C(C)=O)c4c3)cc2)CC1)C(=O)O` [Compound I-110, (S)-2-{4-[4-(8-acetylnaphthalen-2-ylethynyl)-phenyl]-piperazine-1-sulfonylamino}-pentanoic acid], the IC50 in test [3] (setting [5]) lay within 10 to 100 nM.

As for `C[C@@H](NS(=O)(=O)N1CCN(c2ccc(C#Cc3ccc4cccc(C(=O)NCCF)c4c3)cc2)CC1)C(=O)O` [Compound I-56, (R)-2-(4-{4-[8-(2-fluoroethylcarbamoyl)-naphthalen-2-ylethynyl]-phenyl}-piperazine-1-sulfonylamino)-proponic acid], in test [3] (setting [5]), the IC50 was below 10 nM.

`CCC[C@H](NS(=O)(=O)N1CCN(c2ccc(/C=C/c3ccc4cccc(C(N)=O)c4c3)cc2)CC1)C(=O)O` [Compound I-59, (S)-2-(4-{4-[(E)-2-(8-carbamoylnaphthalen-2-yl)-vinyl]-phenyl}-piperazine-1-sulfonylamino)-pentanoic acid]: the IC50 in test [3] (setting [5]) fell in the range of 10 to 100 nM.

Take `CCC[C@H](NS(=O)(=O)N1CCN(c2ccc(C#Cc3ccc4cccc(C(N)=O)c4c3)cc2)CC1)C(=O)O` [Compound I-92, (S)-2-{4-[4-(8-carbamoylnaphthalen-2-ylethynyl)-phenyl]-piperazine-1-sulfonylamino}-pentanoic acid]: in test [3] (setting [5]), the IC50 is 10 to 100 nM.

`CC(C)CO/N=C1\CCc2ccc(C#Cc3ccc(N4CCN(S(=O)(=O)N[C@H](C)C(=O)O)CC4)cc3)cc21` [Compound I-161, (R)-2-[4-(4-{3-[(E)-isobutoxyimino]indan-5-ylethynyl}-phenyl)-piperazine-1-sulfonylamino]-proponic acid]: in test [3] (setting [5]), the IC50 lay within 10 to 100 nM.
